# Measurements published in patent US20050070510A1, “Substituted tetracycline compounds as synergistic antifungal agents” (Paratek Pharmaceuticals, Inc., priority 2001, published 2005).
# Tested on: COS-1 cells
# Experiment: In vitro mammalian cytotoxicity assay (Resazurin)
row,Compound,In Vitro Cytotoxicity
1,COc1ccc(C=O)cc1-c1ccc(O)c2c1C[C@@]1(N)C[C@@]3(N)[C@H](N(C)C)C(O)=C(C(N)=O)C(=O)[C@@]3(C#N)C(O)=C1C2=O [OW],* (toxicities greater than >25 μg/ml are represented by *)
2,CC(=O)c1cc(F)c(O)c2c1C[C@@]1(N)C[C@@]3(N)[C@H](N(C)C)C(O)=C(C(N)=O)C(=O)[C@@]3(C#N)C(O)=C1C2=O [SB],* (toxicities greater than >25 μg/ml are represented by *)
3,CN(C)[C@@H]1C(O)=C(C(N)=O)C(=O)[C@@]2(C#N)C(O)=C3C(=O)c4c(O)c(F)cc(CN)c4C[C@@]3(N)C[C@@]12N [NQ],** (toxicities less than 25 μg/mL are represented by **)
4,CN(C)Cc1ccc(-c2ccc(O)c3c2C[C@@]2(N)C[C@@]4(N)[C@H](N(C)C)C(O)=C(C(N)=O)C(=O)[C@@]4(C#N)C(O)=C2C3=O)cc1 [HR],* (toxicities greater than >25 μg/ml are represented by *)
5,Cc1ncsc1/C=C/c1ccc(O)c2c1C[C@@]1(N)C[C@@]3(N)[C@H](N(C)C)C(O)=C(C(N)=O)C(=O)[C@@]3(C#N)C(O)=C1C2=O [HE],** (toxicities less than 25 μg/mL are represented by **)
6,CN(C)[C@@H]1C(O)=C(C(N)=O)C(=O)[C@@]2(C#N)C(O)=C3C(=O)c4c(O)cccc4/C(=C\c4ccc(F)cc4)[C@@]3(N)[C@H]([S+](N)[O-])[C@@]12N (stereo partly drawn) [BU],** (toxicities less than 25 μg/mL are represented by **)
7,Cc1cccc(-c2ccc(O)c3c2C[C@@]2(N)C[C@@]4(N)[C@H](N(C)C)C(O)=C(C(N)=O)C(=O)[C@@]4(C#N)C(O)=C2C3=O)n1 [VJ],** (toxicities less than 25 μg/mL are represented by **)
8,CN(C)[C@@H]1C(O)=C(C(N)=O)C(=O)[C@@]2(C#N)C(O)=C3C(=O)c4c(O)ccc(-c5ccc(CNC6CCCCC6)o5)c4C[C@@]3(N)C[C@@]12N [SR],** (toxicities less than 25 μg/mL are represented by **)
9,CN(C)[C@@H]1C(O)=C(C(N)=O)C(=O)[C@@]2(C#N)C(O)=C3C(=O)c4c(ccc(/C=C\C(=O)NC(C)(C)C)c4O)[C@H](N)[C@@]3(N)[C@H](O)[C@@]12N [JA],* (toxicities greater than >25 μg/ml are represented by *)
10,Cc1ccc(S(=O)(=O)NC(=O)C#Cc2cc(N(C)C)c3c(c2O)C(=O)C2=C(O)[C@]4(C#N)C(=O)C(C(N)=O)=C(O)[C@@H](N(C)C)[C@]4(N)C[C@]2(N)C3)cc1 [JJ],* (toxicities greater than >25 μg/ml are represented by *)
11,CN(C)[C@@H]1C(O)=C(C(N)=O)C(=O)[C@@]2(C#N)C(O)=C3C(=O)c4c(O)ccc(C#CCc5ccccc5)c4C[C@@]3(N)C[C@@]12N [GZ],** (toxicities less than 25 μg/mL are represented by **)
12,CN(C)c1cc(NCc2ccc(O)c(O)c2)c(O)c2c1C[C@@]1(N)C[C@@]3(N)[C@H](N(C)C)C(O)=C(C(N)=O)C(=O)[C@@]3(C#N)C(O)=C1C2=O [TY],* (toxicities greater than >25 μg/ml are represented by *)
13,CCCC(Nc1ccc2c(c1O)C(=O)C1=C(O)[C@]3(C#N)C(=O)C(C(N)=O)=C(O)[C@@H](N(C)C)[C@]3(N)[C@@H](O)[C@]1(N)[C@H]2N)C(=O)OCC (stereo partly drawn) [CG],** (toxicities less than 25 μg/mL are represented by **)
14,CC(C)c1ccc(CNc2cc(N(C)C)c3c(c2O)C(=O)C2=C(O)[C@]4(C#N)C(=O)C(C(N)=O)=C(O)[C@@H](N(C)C)[C@]4(N)C[C@]2(N)C3)cc1 [TV],** (toxicities less than 25 μg/mL are represented by **)
15,COc1ccc(-c2ccc(O)c3c2C[C@@]2(N)C[C@@]4(N)[C@H](N(C)C)C(O)=C(C(N)=O)C(=O)[C@@]4(C#N)C(O)=C2C3=O)c(OC)c1 [OM],** (toxicities less than 25 μg/mL are represented by **)
16,CN(C)[C@@H]1C(O)=C(C(N)=O)C(=O)[C@@]2(C#N)C(O)=C3C(=O)c4c(ccc(N5CCCCC5)c4O)[C@H](N)[C@@]3(N)[C@H](O)[C@@]12N [SA],* (toxicities greater than >25 μg/ml are represented by *)
17,CCOc1ccc(-c2ccc(O)c3c2C[C@@]2(N)C[C@@]4(N)C(N(C)C)C(O)=C(C(N)=O)C(=O)[C@@]4(C#N)C(O)=C2C3=O)cc1CNC(=O)C(F)(F)F (stereo partly drawn) [QQ],* (toxicities greater than >25 μg/ml are represented by *)
18,CN(C)[C@@H]1C(O)=C(C(N)=O)C(=O)[C@@]2(C#N)C(O)=C3C(=O)c4c(O)c(-c5ccccc5)cc(-c5ccccc5)c4[C@H](N)[C@@]3(N)[C@H](O)[C@@]12N [PX],** (toxicities less than 25 μg/mL are represented by **)
19,CN(C)[C@@H]1C(O)=C(C(N)=O)C(=O)[C@@]2(C#N)C(O)=C3C(=O)c4c(O)cccc4/C(=C\c4cc(F)cc(F)c4)[C@@]3(N)[C@H](O)[C@@]12N [DR],* (toxicities greater than >25 μg/ml are represented by *)
20,CN(C)[C@@H]1C(O)=C(C(N)=O)C(=O)[C@@]2(C#N)C(O)=C3C(=O)c4c(O)c(CNC(=O)C5CC5)cc(-c5ccc(C(C)(C)C)cc5)c4C[C@@]3(N)C[C@@]12N [RM],** (toxicities less than 25 μg/mL are represented by **)
21,CN(C)[C@@H]1C(O)=C(C(N)=O)C(=O)[C@@]2(C#N)C(O)=C3C(=O)c4c(O)ccc(C(=O)Cc5ccccc5)c4C[C@@]3(N)C[C@@]12N [MB],* (toxicities greater than >25 μg/ml are represented by *)

row,Compound,In Vitro Cytotoxicity
1,CN(C)[C@@H]1C(O)=C(C(N)=O)C(=O)[C@@]2(C#N)C(O)=C3C(=O)c4c(O)ccc(C#Cc5ccccc5)c4C[C@@]3(N)C[C@@]12N [FX],** (toxicities less than 25 μg/mL are represented by **)
2,CC(C)COC(=O)NCc1ccc(O)c2c1C[C@@]1(N)C[C@@]3(N)[C@H](N(C)C)C(O)=C(C(N)=O)C(=O)[C@@]3(C#N)C(O)=C1C2=O [NO],** (toxicities less than 25 μg/mL are represented by **)
3,CN(C)c1cc(CNC(=O)Nc2ccc3c(c2)OCO3)c(O)c2c1C[C@@]1(N)C[C@@]3(N)[C@H](N(C)C)C(O)=C(C(N)=O)C(=O)[C@@]3(C#N)C(O)=C1C2=O [MZ],* (toxicities greater than >25 μg/ml are represented by *)
4,CN(C)c1cc(-c2ccoc2)c(O)c2c1C[C@@]1(N)C[C@@]3(N)[C@H](N(C)C)C(O)=C(C(N)=O)C(=O)[C@@]3(C#N)C(O)=C1C2=O [SN],** (toxicities less than 25 μg/mL are represented by **)
5,CN(C)[C@@H]1C(O)=C(C(N)=O)C(=O)[C@@]2(C#N)C(O)=C3C(=O)c4c(ccc(-c5cccc(C(N)=O)c5)c4O)[C@H](N)[C@@]3(N)[C@H](O)[C@@]12N [PP],** (toxicities less than 25 μg/mL are represented by **)
6,CN(C)[C@@H]1C(O)=C(C(N)=O)C(=O)[C@@]2(C#N)C(O)=C3C(=O)c4c(O)ccc(C5C=CCC5)c4C[C@@]3(N)C[C@@]12N (stereo partly drawn) [FD],** (toxicities less than 25 μg/mL are represented by **)
7,CCCCC#Cc1cc(N(C)C)c2c(c1O)C(=O)C1=C(O)[C@]3(C#N)C(=O)C(C(N)=O)=C(O)[C@@H](N(C)C)[C@]3(N)C[C@]1(N)C2 [LB],** (toxicities less than 25 μg/mL are represented by **)
8,CN(C)CCNC(=O)c1ccc(-c2ccc(O)c3c2C[C@@]2(N)C[C@@]4(N)[C@H](N(C)C)C(O)=C(C(N)=O)C(=O)[C@@]4(C#N)C(O)=C2C3=O)cc1 [PC],* (toxicities greater than >25 μg/ml are represented by *)
9,COc1ccc(CNCc2cccc(F)c2)cc1-c1ccc(O)c2c1[C@H](N)[C@]1(N)C(=C(O)[C@]3(C#N)C(=O)C(C(N)=O)=C(O)[C@@H](N(C)C)[C@]3(N)[C@H]1O)C2=O [QL],* (toxicities greater than >25 μg/ml are represented by *)
10,CN(C)[C@@H]1C(O)=C(C(N)=O)C(=O)[C@@]2(C#N)C(O)=C3C(=O)c4c(O)ccc(-c5ccc(F)c(F)c5)c4C[C@@]3(N)C[C@@]12N [QB],** (toxicities less than 25 μg/mL are represented by **)
11,CC(=O)NCc1cc(-c2ccccc2)c2c(c1O)C(=O)C1=C(O)[C@]3(C#N)C(=O)C(C(N)=O)=C(O)[C@@H](N(C)C)[C@]3(N)C[C@]1(N)C2 [LJ],* (toxicities greater than >25 μg/ml are represented by *)
12,CN(C)c1cc(/C=C/c2ccc(F)cc2)c(O)c2c1C[C@@]1(N)C[C@@]3(N)[C@H](N(C)C)C(O)=C(C(N)=O)C(=O)[C@@]3(C#N)C(O)=C1C2=O [CD],** (toxicities less than 25 μg/mL are represented by **)
13,CN(C)CC#Cc1ccc(O)c2c1C[C@@]1(N)C[C@@]3(N)[C@H](N(C)C)C(O)=C(C(N)=O)C(=O)[C@@]3(C#N)C(O)=C1C2=O [FJ],** (toxicities less than 25 μg/mL are represented by **)
14,CN(C)[C@@H]1C(O)=C(C(N)=O)C(=O)[C@@]2(C#N)C(O)=C3C(=O)c4c(O)ccc(-c5ccc(CN6CCCC6)o5)c4C[C@@]3(N)C[C@@]12N [PJ],* (toxicities greater than >25 μg/ml are represented by *)
15,CN(C)[C@@H]1C(O)=C(C(N)=O)C(=O)[C@@]2(C#N)C(O)=C3C(=O)c4c(ccc(-c5ccc(C=O)c6ccccc56)c4O)[C@H](N)[C@@]3(N)[C@H](O)[C@@]12N [PN],** (toxicities less than 25 μg/mL are represented by **)
16,CN(C)c1cc(-c2ccc(Cl)cc2)c(O)c2c1C[C@@]1(N)C[C@@]3(N)[C@H](N(C)C)C(O)=C(C(N)=O)C(=O)[C@@]3(C#N)C(O)=C1C2=O [EQ],** (toxicities less than 25 μg/mL are represented by **)
17,CN(C)[C@@H]1C(O)=C(C(N)=O)C(=O)[C@@]2(C#N)C(O)=C3C(=O)c4c(O)ccc(C#CC5=CCCCC5)c4C[C@@]3(N)C[C@@]12N [GF],** (toxicities less than 25 μg/mL are represented by **)
18,CN(C)[C@@H]1C(O)=C(C(N)=O)C(=O)[C@@]2(C#N)C(O)=C3C(=O)c4c(O)ccc(-c5ccc(C(=O)O)c6ccccc56)c4C[C@@]3(N)C[C@@]12N [NM],** (toxicities less than 25 μg/mL are represented by **)
19,CN(C)[C@@H]1C(O)=C(C(N)=O)C(=O)[C@@]2(C#N)C(O)=C3C(=O)c4c(O)ccc(-c5ccc(NC(=O)CBr)cc5)c4C[C@@]3(N)C[C@@]12N [UV],** (toxicities less than 25 μg/mL are represented by **)
20,Cc1noc(C)c1S(=O)(=O)Nc1ccc2c(c1O)C(=O)C1=C(O)[C@]3(C#N)C(=O)C(C(N)=O)=C(O)[C@@H](N(C)C)[C@]3(N)C[C@]1(N)C2 [RI],** (toxicities less than 25 μg/mL are represented by **)
21,CCC(C)C#Cc1ccc(O)c2c1C[C@@]1(N)C[C@@]3(N)[C@H](N(C)C)C(O)=C(C(N)=O)C(=O)[C@@]3(C#N)C(O)=C1C2=O (stereo partly drawn) [GW],** (toxicities less than 25 μg/mL are represented by **)
